Results as given in ChEMBL document CHEMBL1649108, “Discovery of AMG 369, a Thiazolo[5,4-b]pyridine Agonist of S1P1 and S1P5” (ACS Med Chem Lett, 2011).
Blank lines part the entries; values can stand above or below the molecule they belong to. Active and inactive are the calls of the source. No cut-off for these calls is given here.

Experiments:
[1] = target: T1, Sphingosine 1-phosphate receptor 3 (Homo sapiens, UniProt Q99500); test: Agonist activity at human S1P3R expressed in CHO cells by Ca(2+) mobilization assay relative to S1P; type: functional, cell-based; parameters: concentration or dose not given beside the values
[2] = target: T2, Sphingosine 1-phosphate receptor 1 (Homo sapiens, UniProt P21453); test: Induction of human GFP-tagged chimeric S1P1R internalization in human U2Os cells by fluorescence microscopy; type: cell-based
[3] = target: T1, Sphingosine 1-phosphate receptor 3; test: Agonist activity at human S1P3R expressed in CHO cells by Ca(2+) mobilization assay; type: functional, cell-based
[4] = target: T2, Sphingosine 1-phosphate receptor 1; test: Induction of human GFP-tagged chimeric S1P1R internalization in human U2Os cells by fluorescence microscopy relative to 1-(4-(6-benzylbenzofuran-2-yl)-3-fluorobenzyl)azetidine-3-carboxylic acid; type: cell-based
[5] = target: T1, Sphingosine 1-phosphate receptor 3; test: Agonist activity at human S1P3R expressed in CHO cells at 2.5 uM by Ca(2+) mobilization assay relative to S1P; type: functional, cell-based
Rattus norvegicus [6] = test: Lymphopenic activity in Lewis rat assessed as reduction in blood lymphocyte counts at 1 mg/kg, po administered as single dose measured 24 hrs post dose; type: functional, organism-based; parameters: dose 1 mg/kg
[7] = Half life in cynomolgus monkey at 1 mg/kg, iv or 1 mg/kg, po; type: ADME, organism-based, Macaca fascicularis; settings: in vivo
[8] = Half life in Beagle dog at 1 mg/kg, iv or 1 mg/kg, po; type: ADME, organism-based, Canis lupus familiaris; settings: in vivo
Rattus norvegicus [9] = test: Reduction of disease score in experimental autoimmune encephalitis Lewis rat model of multiple sclerosis at 20 ug/day, po administered at the time of immunization with guinea pig myelin basic protein
[10] = target: T3, Sphingosine 1-phosphate receptor 4 (Homo sapiens) (UniProt O95977); test: Agonist activity at human S1P4R expressed in CHO cells by Ca(2+) mobilization assay; type: functional, cell-based
T3 sequence (whole entry): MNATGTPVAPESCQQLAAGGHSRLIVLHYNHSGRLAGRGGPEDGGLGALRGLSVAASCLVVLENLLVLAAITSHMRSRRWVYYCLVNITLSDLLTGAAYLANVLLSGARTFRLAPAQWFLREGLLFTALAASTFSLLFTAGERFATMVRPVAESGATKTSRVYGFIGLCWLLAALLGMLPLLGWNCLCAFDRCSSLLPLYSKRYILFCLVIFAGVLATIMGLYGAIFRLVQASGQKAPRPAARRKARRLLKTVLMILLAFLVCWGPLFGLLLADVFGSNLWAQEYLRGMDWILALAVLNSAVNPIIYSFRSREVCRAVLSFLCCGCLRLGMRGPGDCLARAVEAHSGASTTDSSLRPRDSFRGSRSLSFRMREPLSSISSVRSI

[11] = target: Sphingosine 1-phosphate receptor 2 (Homo sapiens) (UniProt O95136); test: Agonist activity at human S1P2R expressed in CHO cells by Ca(2+) mobilization assay; type: functional, cell-based
[12] = Clearance in Beagle dog at 1 mg/kg, iv or 1 mg/kg, po; type: ADME, organism-based, Canis lupus familiaris; settings: in vivo
[13] = Mean residence time in Beagle dog at 1 mg/kg, iv or 1 mg/kg, po; type: ADME, organism-based, Canis lupus familiaris; settings: in vivo
[14] = Inhibition of Cytochrome P450; type: ADME
[15] = target: T4, Sphingosine 1-phosphate receptor 5 (Homo sapiens, UniProt Q9H228); test: Agonist activity at human S1P5R expressed in CHO cells by Ca(2+) mobilization assay relative to control; type: functional, cell-based
Rattus norvegicus [16] = test: Lymphopenic activity in orally dosed Lewis rat assessed as reduction in blood lymphocyte counts measured 24 hrs post dose; type: functional, organism-based
[17] = Half life in Sprague-Dawley rat at 1 mg/kg, iv or 2 mg/kg, po; type: ADME, organism-based; settings: in vivo
Rattus norvegicus [18] = test: Lymphopenic activity in Lewis rat assessed as reduction in blood lymphocyte counts at 0.03 mg/kg, po administered as single dose measured 24 hrs post dose; type: functional
[19] = target: Voltage-gated inwardly rectifying potassium channel KCNH2 (Homo sapiens, UniProt Q12809); test: Inhibition of human ERG at 2.3 uM by patch-clamp method
Rattus norvegicus [20] = test: Toxicity in telemetered Sprague-Dawley rat assessed as effect on heart rate at 10 mg/kg, po; type: organism-based; parameters: dose 10 mg/kg, route oral; settings: in vivo
[21] = target: T4, Sphingosine 1-phosphate receptor 5; test: Agonist activity at human S1P5R expressed in CHO cells by Ca(2+) mobilization assay; type: functional, cell-based
[22] = Oral bioavailability in Beagle dog 1 mg/kg; type: ADME, organism-based, Canis lupus familiaris; settings: in vivo
[23] = Volume of distribution at steady state in cynomolgus monkey at 1 mg/kg, iv or 1 mg/kg, po; type: ADME, organism-based, Macaca fascicularis; settings: in vivo, read-out: Vdss
Rattus norvegicus [24] = test: Induction of delay in onset of disease in experimental autoimmune encephalitis Lewis rat model of multiple sclerosis at 20 ug/day, po administered at the time of immunization with guinea pig myelin basic protein
[25] = Oral bioavailability in Sprague-Dawley rat 2 mg/kg; type: ADME, organism-based; settings: in vivo
[26] = Clearance in cynomolgus monkey at 1 mg/kg, iv or 1 mg/kg, po; type: ADME, organism-based, Macaca fascicularis; settings: in vivo
[27] = Volume of distribution at steady state in Beagle dog at 1 mg/kg, iv or 1 mg/kg, po; type: ADME, organism-based, Canis lupus familiaris; settings: in vivo, read-out: Vdss
[28] = Mean residence time in cynomolgus monkey at 1 mg/kg, iv or 1 mg/kg, po; type: ADME, organism-based, Macaca fascicularis; settings: in vivo
[29] = Clearance in Sprague-Dawley rat at 1 mg/kg, iv or 2 mg/kg, po; type: ADME, organism-based; settings: in vivo
[30] = Mean residence time in Sprague-Dawley rat at 1 mg/kg, iv or 2 mg/kg, po; type: ADME, organism-based; settings: in vivo
Rattus norvegicus [31] = test: Lymphopenic activity in Lewis rat assessed as reduction in blood lymphocyte counts at 0.1 mg/kg, po administered as single dose measured 24 hrs post dose; type: functional
[32] = Volume of distribution at steady state in Sprague-Dawley rat at 1 mg/kg, iv or 2 mg/kg, po; type: ADME, organism-based; settings: in vivo, read-out: Vdss
Rattus norvegicus [33] = test: Reduction of disease score in experimental autoimmune encephalitis Lewis rat model of multiple sclerosis at 2 ug/day, po administered at the time of immunization with guinea pig myelin basic protein
Rattus norvegicus [34] = test: Toxicity in telemetered Sprague-Dawley rat assessed as change in mean arterial pressure at 10 mg/kg, po; type: organism-based, Artery; parameters: dose 10 mg/kg, route oral; settings: in vivo
[35] = Mutagenic activity in Salmonella Typhimurium by Ames assay; type: toxicity; settings: salmonella enterica subsp. enterica serovar typhimurium
[36] = Oral bioavailability in cynomolgus monkey 1 mg/kg; type: ADME, organism-based, Macaca fascicularis; settings: in vivo

T1 sequence (Q99500 whole entry): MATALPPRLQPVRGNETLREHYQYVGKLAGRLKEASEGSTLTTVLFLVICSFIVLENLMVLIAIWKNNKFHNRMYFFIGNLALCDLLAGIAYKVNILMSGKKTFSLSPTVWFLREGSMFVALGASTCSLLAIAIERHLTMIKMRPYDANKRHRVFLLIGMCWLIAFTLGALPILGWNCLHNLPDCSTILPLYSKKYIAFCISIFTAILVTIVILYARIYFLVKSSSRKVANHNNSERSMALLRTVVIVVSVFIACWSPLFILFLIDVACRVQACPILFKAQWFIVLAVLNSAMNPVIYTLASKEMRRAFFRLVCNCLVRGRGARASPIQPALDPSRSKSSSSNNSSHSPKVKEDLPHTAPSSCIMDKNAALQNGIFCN
T2 sequence (P21453 whole entry): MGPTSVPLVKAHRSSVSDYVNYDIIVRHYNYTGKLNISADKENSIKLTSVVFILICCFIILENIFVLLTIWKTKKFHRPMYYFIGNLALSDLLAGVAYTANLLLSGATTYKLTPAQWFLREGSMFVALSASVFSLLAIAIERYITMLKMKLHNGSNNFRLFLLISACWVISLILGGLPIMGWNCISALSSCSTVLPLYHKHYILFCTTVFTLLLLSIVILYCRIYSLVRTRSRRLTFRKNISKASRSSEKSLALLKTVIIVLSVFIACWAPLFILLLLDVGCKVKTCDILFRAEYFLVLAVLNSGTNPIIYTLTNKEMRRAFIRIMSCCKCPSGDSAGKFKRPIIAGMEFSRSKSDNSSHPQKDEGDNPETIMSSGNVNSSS
T4 sequence (Q9H228 whole entry): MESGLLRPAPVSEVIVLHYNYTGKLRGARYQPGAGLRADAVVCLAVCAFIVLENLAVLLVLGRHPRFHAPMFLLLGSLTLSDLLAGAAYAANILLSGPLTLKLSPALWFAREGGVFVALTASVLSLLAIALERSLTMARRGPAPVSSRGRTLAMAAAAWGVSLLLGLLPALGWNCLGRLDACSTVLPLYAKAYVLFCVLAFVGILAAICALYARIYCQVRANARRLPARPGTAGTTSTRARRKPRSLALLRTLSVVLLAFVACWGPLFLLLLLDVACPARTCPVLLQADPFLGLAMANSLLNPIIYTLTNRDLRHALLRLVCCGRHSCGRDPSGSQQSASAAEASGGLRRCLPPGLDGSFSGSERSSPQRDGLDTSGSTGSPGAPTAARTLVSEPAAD
Sphingosine 1-phosphate receptor 2 (Homo sapiens), sequence (O95136 whole entry): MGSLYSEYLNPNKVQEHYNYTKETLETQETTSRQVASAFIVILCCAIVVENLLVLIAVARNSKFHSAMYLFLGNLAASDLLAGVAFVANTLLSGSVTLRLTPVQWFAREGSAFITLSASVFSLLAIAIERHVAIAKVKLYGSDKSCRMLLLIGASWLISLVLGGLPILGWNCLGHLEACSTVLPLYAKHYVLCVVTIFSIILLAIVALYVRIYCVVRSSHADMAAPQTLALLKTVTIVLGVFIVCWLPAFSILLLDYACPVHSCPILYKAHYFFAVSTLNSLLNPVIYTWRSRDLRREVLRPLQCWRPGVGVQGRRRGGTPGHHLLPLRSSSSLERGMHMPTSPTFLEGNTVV
Voltage-gated inwardly rectifying potassium channel KCNH2, sequence (Q12809 whole entry): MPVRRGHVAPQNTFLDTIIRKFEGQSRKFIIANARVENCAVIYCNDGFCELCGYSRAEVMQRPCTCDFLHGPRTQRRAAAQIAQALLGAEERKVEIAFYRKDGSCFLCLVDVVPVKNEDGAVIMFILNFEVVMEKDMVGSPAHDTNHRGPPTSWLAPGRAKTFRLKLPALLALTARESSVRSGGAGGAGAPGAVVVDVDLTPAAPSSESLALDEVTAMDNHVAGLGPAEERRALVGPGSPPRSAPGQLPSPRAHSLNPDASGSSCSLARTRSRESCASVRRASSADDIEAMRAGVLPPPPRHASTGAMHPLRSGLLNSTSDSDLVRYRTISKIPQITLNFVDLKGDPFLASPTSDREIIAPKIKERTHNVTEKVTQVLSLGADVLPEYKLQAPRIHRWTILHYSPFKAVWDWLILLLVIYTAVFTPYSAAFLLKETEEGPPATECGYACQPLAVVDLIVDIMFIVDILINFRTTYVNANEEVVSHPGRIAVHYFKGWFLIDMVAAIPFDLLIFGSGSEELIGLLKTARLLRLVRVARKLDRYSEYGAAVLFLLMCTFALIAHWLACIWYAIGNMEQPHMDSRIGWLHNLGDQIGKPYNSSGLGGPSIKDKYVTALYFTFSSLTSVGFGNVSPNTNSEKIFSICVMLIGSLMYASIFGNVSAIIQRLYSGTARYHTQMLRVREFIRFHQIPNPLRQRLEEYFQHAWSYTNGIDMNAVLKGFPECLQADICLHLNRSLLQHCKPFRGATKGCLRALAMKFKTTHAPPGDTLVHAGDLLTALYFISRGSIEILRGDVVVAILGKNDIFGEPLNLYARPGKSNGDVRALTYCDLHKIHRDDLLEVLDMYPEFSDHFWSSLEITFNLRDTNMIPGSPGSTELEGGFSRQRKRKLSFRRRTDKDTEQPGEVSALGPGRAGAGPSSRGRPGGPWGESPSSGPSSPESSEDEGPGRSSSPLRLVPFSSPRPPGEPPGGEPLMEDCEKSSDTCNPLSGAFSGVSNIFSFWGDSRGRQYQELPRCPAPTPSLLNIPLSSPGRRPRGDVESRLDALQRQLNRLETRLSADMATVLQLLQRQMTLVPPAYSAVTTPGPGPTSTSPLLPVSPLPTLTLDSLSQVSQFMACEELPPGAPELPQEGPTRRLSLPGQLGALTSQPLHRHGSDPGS

SMILES: C[C@H](c1ccccc1)c1ccc2nc(-c3ccc(CN4CC(C(=O)O)C4)cc3F)sc2n1
Activity [1]: 45%
EC50 [2]: 0.038 µM
EC50 [3]: 0.996 µM
Efficacy [4]: 87%

SMILES: CC(C)(c1ccccc1)c1ccc2nc(-c3ccc(CN4CC(C(=O)O)C4)cc3F)sc2n1
Activity [1]: 64%
EC50 [2]: 0.033 µM
EC50 [3]: 2.51 µM
Efficacy [4]: 103%

SMILES: C[C@@H](c1ccccc1)c1ccc2nc(-c3ccc(CN4CC(C(=O)O)C4)cc3F)sc2n1
Activity [1]: 44%
EC50 [2]: 0.035 µM
EC50 [3]: 0.877 µM
Efficacy [4]: 99%

SMILES: O=C(O)C1CN(Cc2ccc(-c3nc4nc(Cc5ccccc5)ccc4s3)c(F)c2)C1
Activity [1]: 63%
EC50 [2]: 0.144 µM
EC50 [3]: 10.1 µM
Efficacy [4]: 106%

SMILES: O=C(O)C1CN(Cc2ccc(-c3nc4ccc(C5(c6ccccc6)CCC5)nc4s3)c(F)c2)C1
Activity [1]: 68%
EC50 [2]: 0.119 µM
EC50 [3]: 1.31 µM
Efficacy [4]: 124%

SMILES: O=C(O)C1CN(Cc2ccc(-c3nc4cc(Cc5ccccc5)cnc4s3)c(F)c2)C1
Activity [1]: 36%
EC50 [2]: 0.138 µM
EC50 [3]: 2.89 µM
Efficacy [4]: 125%

SMILES: O=C(O)C1CN(Cc2ccc(-c3nc4ccc(C5(c6ccccc6)CCCCC5)nc4s3)c(F)c2)C1
Activity [1]: 41%
EC50 [2]: 0.033 µM
EC50 [3]: 0.836 µM
Efficacy [4]: 108%

SMILES: O=C(O)C1CN(Cc2ccc(-c3nc4ccc(Cc5ccccc5)nc4s3)c(F)c2)C1
Activity [1]: 94%
EC50 [2]: 0.199 µM
EC50 [3]: 0.478 µM
Efficacy [4]: 92%

SMILES: O=C(O)C1CN(Cc2ccc(-c3nc4ccc(C5(c6ccccc6)CC5)nc4s3)c(F)c2)C1
half-life [7]: 24 h
half-life [8]: 38 h
Activity (Rattus norvegicus [9]): Active
Activity [10]: inactive
Activity [11]: inactive
clearance [12]: 1.18 mL/min/kg
MRT [13]: 17 h
inhibition (INH) [14]: Not Active
Efficacy [15]: 50%
inhibition (Rattus norvegicus [16]): Dose-dependent effect
half-life [17]: 5.9 h
inhibition in vivo at 0.03 mg/kg (Rattus norvegicus [18]): 45%
inhibition (INH) [19]: Not Active
Activity (Rattus norvegicus [20]): Non-toxic
EC50 [21]: 0.029 µM
Activity [1]: 26%
bioavailability [22]: 41%
Vd [23]: 2.3 L/kg
Activity (Rattus norvegicus [24]): Active
bioavailability [25]: 64%
clearance [26]: 8.33 mL/min/kg
Vd [27]: 1.2 L/kg
MRT [28]: 4.7 h
clearance [29]: 3 mL/min/kg
MRT [30]: 10 h
inhibition in vivo at 0.1 mg/kg (Rattus norvegicus [31]): 65%
Vd [32]: 1.8 L/kg
Activity (Rattus norvegicus [33]): inactive
Efficacy [4]: 98%
Activity (Rattus norvegicus [34]): Non-toxic
Activity [35]: Non-toxic
bioavailability [36]: 34%

Second part, led by results:

Activity [1]: 56%
EC50 [2]: 0.038 µM
EC50 [3]: 4.67 µM
Efficacy [4]: 93%
SMILES: O=C(O)C1CN(Cc2ccc(-c3nc4ccc(C5(c6ccccc6)CC5)cc4s3)c(F)c2)C1

EC50 [2]: 0.026 µM
Efficacy [5]: 12%
Efficacy [4]: 76%
SMILES: O=C(O)C1CN(Cc2ccc(-c3nc4ccc(C5(c6ccccc6)CCCC5)nc4s3)c(F)c2)C1

EC50 [2]: 0.429 µM
EC50 [3]: > 25 µM
Efficacy [4]: 115%
SMILES: O=C(O)C1CN(Cc2ccc(-c3nc4cc(Cc5ccccc5)ncc4s3)c(F)c2)C1

Activity [1]: 50%
EC50 [2]: 0.221 µM
EC50 [3]: 3.47 µM
SMILES: O=C(O)C1CN(Cc2ccc(-c3nc4ccc(Cc5ccccc5)cc4s3)c(F)c2)C1

Activity [1]: 64%
EC50 [2]: 3.98 µM
EC50 [3]: 5.46 µM
Efficacy [4]: 77%
SMILES: O=C(O)C1CN(Cc2ccc(-c3nc4cnc(Cc5ccccc5)cc4s3)c(F)c2)C1

Activity [1]: 24%
Efficacy [4]: 102%
SMILES: O=C(O)C1CN(Cc2ccc(-c3nc4cc(Cc5ccccc5)ccc4s3)c(F)c2)C1
inhibition (Rattus norvegicus [6]): Active

EC50 [2]: 1.6 µM
EC50 [3]: > 25 µM
Efficacy [4]: 75%
SMILES: O=C(O)C1CN(Cc2ccc(-c3nc4ncc(Cc5ccccc5)cc4s3)c(F)c2)C1
